# Tests used:
# Cyperus sp = experiment: Pot study, spray of pure thaxtomin A solutions, % control; assay type: in vivo, smallflower umbrella sedge; Cyperus diiformis
# Method: (§1) A pot study was conducted to test the phytotoxicity of thaxtomin A on broadleaved, sedge and grass weeds. Seeds of two most common broadleaf (redstem; Ammannia spp. and common waterplantain; Alisma plantago-aquatica), sedge (smallflower umbrella sedge; Cyperus diiformis) and grass (sprangletop: Leptochloa uninervia) weeds each were planted in a plastic pots filled with heavy clay soil. The less than 1-inch tall plants grown under growth lights (12-h light/12-h dark) at 28° C. were sprayed with pure thaxtomin A solutions containing 0.05, 0.1, 0.2, and 0.4 mg thaxtomin A per mL of solvent (4% ethanol and 0.2% non-ionic surfactant). A solution of 4% ethanol+0.2% non-ionic surfactant without thaxtomin A was used as a control treatment. Same treatments were applied to three-inch tall rice plants grown submerged under growth lights at 28° C. […] All treatments were applied in three replicates. Treated plants were kept at 28° C. under growth lights and observed at three time points—5, 12 and 21 days after treatment—for visual symptoms of phytotoxicity and % control.
# AMM = experiment: Greenhouse pot study, weed control; assay type: in vivo, Ammania spp.
# Description: (§2) Moderate suppression (60%) was noted on Echinochloa colonum at 500 g a.i. per hectare.
# CPD = experiment: Greenhouse pot study, weed control; assay type: in vivo, Cyperus difformis
# Description: as §2
# WPL = experiment: Greenhouse pot study, weed control; assay type: in vivo, Alisma-plamago aquatica
# Description: as §2
# DSA = experiment: Greenhouse pot study, weed control; assay type: in vivo, Heteranthem limosa
# DSR (direct-seeded rice) = experiment: Greenhouse pot study, effect on crop growth, direct-seeded rice; assay type: in vivo
# transplanted rice = experiment: First study, crop safety; assay type: in vivo; conditions: all rates tested (64 to 1000 g a.i. per hectare)
# [1] = tested on: TPL (transplanted 'M202' Japonica-type rice); experiment: Greenhouse pot study, effect on crop growth, transplanted rice; assay type: in vivo; conditions: for effect on crop growth (rice): TPL
# barnyardgrass = experiment: First study, weed control; assay type: in vivo; conditions: 500-1000 g a.i. per hectare
# WCN = experiment: Greenhouse pot study, weed control; assay type: in vivo, Eleocharis dulcis
# Description: (§3) The activity on susceptible and resistant biotypes of Scirpus mucronatus was somewhat weaker (70 to 75%) than that observed for other sedge weeds in this study.
# CYI = experiment: Greenhouse pot study, weed control; assay type: in vivo, Cyperus iria
# [2] = tested on: most of the Echinochloa spp.; experiment: Greenhouse pot study, weed control; assay type: in vivo; conditions: up to the highest rate tested; 1000 g a.i. per hectare
# Description: as §2
# MON = experiment: Greenhouse pot study, weed control; assay type: in vivo, Monorhoria vaginalis
# SPZ = experiment: Greenhouse pot study, weed control; assay type: in vivo, Sphenoclea zeylanica
# BYG = experiment: Greenhouse pot study, weed control; assay type: in vivo, barnyardgrass
# Alisma plantago-aquatica = experiment: Pot study, spray of pure thaxtomin A solutions, % control; assay type: in vivo, common waterplantain; Alisma plantago-aquatica; conditions: for % control: Alisma plantago-aquatica
# Method: as §1
# rice (S102, M104, M206) = experiment: Pot study, phytotoxicity on rice plants; assay type: in vivo; conditions: three rice cultivars (S102, M104, M206); 0.05-0.4 mg/mL; each evaluation time point (5, 12, 21 days)
# Method: as §1
# [3] = tested on: mono and dicotyledonous seedlings; conditions: cited from earlier work
# MAQ = experiment: Greenhouse pot study, weed control; assay type: in vivo, Marsilea quadrifolia
# Description: as §3
# SCM = experiment: Greenhouse pot study, weed control; assay type: in vivo, Scirpus mucronatus
# Description: as §3
compound,measurement,setting,value
CN1C(=O)[C@](O)(Cc2cccc(O)c2)N(C)C(=O)[C@@H]1Cc1c[nH]c2cccc([N+](=O)[O-])c12 [thaxtomin A],% control,"Cyperus sp; Cyperus sp, 5 DAYS, 0.05 mg/mL in 4% ethanol",5a %
same,% control,"Cyperus sp; Cyperus sp, 5 DAYS, 0.1 mg/mL in 4% ethanol",12a %
same,% control,"Cyperus sp; Cyperus sp, 5 DAYS, 0.2 mg/mL in 4% ethanol",16a %
same,% control,"Cyperus sp; Cyperus sp, 5 DAYS, 0.4 mg/mL in 4% ethanol",25a %
same,% control,"Cyperus sp; Cyperus sp, 12 DAYS, 0.05 mg/mL in 4% ethanol",15a %
same,% control,"Cyperus sp; Cyperus sp, 12 DAYS, 0.1 mg/mL in 4% ethanol",75b %
same,% control,"Cyperus sp; Cyperus sp, 12 DAYS, 0.2 mg/mL in 4% ethanol",77b %
same,% control,"Cyperus sp; Cyperus sp, 12 DAYS, 0.4 mg/mL in 4% ethanol",73b %
same,% control,"Cyperus sp; Cyperus sp, 21 DAYS, 0.05 mg/mL in 4% ethanol",53b %
same,% control,"Cyperus sp; Cyperus sp, 21 DAYS, 0.1 mg/mL in 4% ethanol",90c %
same,% control,"Cyperus sp; Cyperus sp, 21 DAYS, 0.2 mg/mL in 4% ethanol",88c %
same,% control,"Cyperus sp; Cyperus sp, 21 DAYS, 0.4 mg/mL in 4% ethanol",83c %
same,% control,"Cyperus sp; sedge (Cyperus difformis), highest concentration (0.4 mg/mL)",75-80%
same,% control,AMM; 64 g/ha,0%
same,% control,AMM; 125 g/ha,30%
same,% control,AMM; 250 g/ha,90%
same,% control,AMM; 500 g/ha,100%
same,% control,AMM; 1000 g/ha,100%
same,% control,CPD; 64 g/ha,0%
same,% control,CPD; 125 g/ha,85%
same,% control,CPD; 250 g/ha,100%
same,% control,CPD; 500 g/ha,100%
same,% control,CPD; 1000 g/ha,100%
same,% control,WPL; 64 g/ha,0%
same,% control,WPL; 125 g/ha,70%
same,% control,WPL; 250 g/ha,95%
same,% control,WPL; 500 g/ha,100%
same,% control,WPL; 1000 g/ha,100%
same,% control,DSA; 64 g/ha,0%
same,% control,DSA; 125 g/ha,100%
same,% control,DSA; 250 g/ha,100%
same,% control,DSA; 500 g/ha,100%
same,% control,DSA; 1000 g/ha,100%
same,effect on crop growth (rice),DSR (direct-seeded rice); 64 g/ha,10%
same,effect on crop growth (rice),DSR (direct-seeded rice); 125 g/ha,10%
same,effect on crop growth (rice),DSR (direct-seeded rice); 250 g/ha,10%
same,effect on crop growth (rice),DSR (direct-seeded rice); 500 g/ha,15%
same,effect on crop growth (rice),DSR (direct-seeded rice); 1000 g/ha,40%
same,safety to transplanted rice,transplanted rice,complete safety
same,selectivity on transplanted rice,[1]; 1000 g a.i.,excellent selectivity
same,effect on crop growth (rice),[1]; 64 g/ha,0%
same,effect on crop growth (rice),[1]; 125 g/ha,0%
same,effect on crop growth (rice),[1]; 250 g/ha,0%
same,effect on crop growth (rice),[1]; 500 g/ha,0%
same,effect on crop growth (rice),[1]; 1000 g/ha,10%
same,rice selectivity,"[1]; transplanted 'M202' Japonica-type rice, 500 g a.i. per hectare",excellent rice selectivity
same,activity on barnyardgrass,barnyardgrass,moderate activity
same,% control,WCN; 125 g/ha,35%
same,% control,WCN; 250 g/ha,85%
same,% control,WCN; 500 g/ha,85%
same,% control,WCN; 1000 g/ha,95%
same,% control,CYI; 64 g/ha,45%
same,% control,CYI; 125 g/ha,45%
same,% control,CYI; 250 g/ha,95%
same,% control,CYI; 500 g/ha,100%
same,% control,CYI; 1000 g/ha,100%
same,activity on Echinochloa spp.,[2],weakness
same,% control,MON; 64 g/ha,0%
same,% control,MON; 125 g/ha,100%
same,% control,MON; 250 g/ha,100%
same,% control,MON; 500 g/ha,100%
same,% control,MON; 1000 g/ha,100%
same,% control,SPZ; 64 g/ha,0%
same,% control,SPZ; 125 g/ha,90%
same,% control,SPZ; 250 g/ha,90%
same,% control,SPZ; 500 g/ha,100%
same,% control,SPZ; 1000 g/ha,100%
same,% control,BYG; 64 g/ha,0%
same,% control,BYG; 125 g/ha,0%
same,% control,BYG; 250 g/ha,15%
same,% control,BYG; 500 g/ha,30%
same,% control,BYG; 1000 g/ha,40%
same,control of common water plantain,Alisma plantago-aquatica; 0.2 mg/ml,complete control
same,% control,"Alisma plantago-aquatica; 5 DAYS, 0.05 mg/mL in 4% ethanol",8a %
same,% control,"Alisma plantago-aquatica; 5 DAYS, 0.1 mg/mL in 4% ethanol",28ab %
same,% control,"Alisma plantago-aquatica; 5 DAYS, 0.2 mg/mL in 4% ethanol",40b %
same,% control,"Alisma plantago-aquatica; 5 DAYS, 0.4 mg/mL in 4% ethanol",62b %
same,% control,"Alisma plantago-aquatica; 12 DAYS, 0.05 mg/mL in 4% ethanol",40b %
same,% control,"Alisma plantago-aquatica; 12 DAYS, 0.1 mg/mL in 4% ethanol",43b %
same,% control,"Alisma plantago-aquatica; 12 DAYS, 0.2 mg/mL in 4% ethanol",87c %
same,% control,"Alisma plantago-aquatica; 12 DAYS, 0.4 mg/mL in 4% ethanol",87c %
same,% control,"Alisma plantago-aquatica; 21 DAYS, 0.05 mg/mL in 4% ethanol",83b %
same,% control,"Alisma plantago-aquatica; 21 DAYS, 0.1 mg/mL in 4% ethanol",70b %
same,% control,"Alisma plantago-aquatica; 21 DAYS, 0.2 mg/mL in 4% ethanol",100c %
same,% control,"Alisma plantago-aquatica; 21 DAYS, 0.4 mg/mL in 4% ethanol",98c %
same,phytotoxicity in rice cultivars,"rice (S102, M104, M206)",no phytotoxicity
same,"concentration causing cell swelling, necrosis and growth inhibition",[3],less than 1 uM
same,% control,MAQ; 64 g/ha,20%
same,% control,MAQ; 125 g/ha,25%
same,% control,MAQ; 250 g/ha,40%
same,% control,MAQ; 500 g/ha,70%
same,% control,MAQ; 1000 g/ha,85%
same,% control,SCM; 64 g/ha,0%
same,% control,SCM; 125 g/ha,30%
same,% control,SCM; 250 g/ha,30%
same,% control,SCM; 500 g/ha,70%
same,% control,SCM; 1000 g/ha,95%

# Source: patent US9339034B2, “Use of thaxtomin for selective control of rice and aquatic based weeds” (MARRONE BIO INNOVATIONS, INC., priority 2009, dated 2016)
